Experiment: xn = mol fraction of the nth substance listed
Conditions: 100 kPa, Liquid; for viscosity: Concentric cylinders viscometry; for mass density: Vibrating tube method

CCCC[n+]1ccn(C)c1.O=S(=O)([N-]S(=O)(=O)C(F)(F)F)C(F)(F)F + CCCCn1cc[n+](C)c1.F[B-](F)(F)F
Conditions | mass density, x1 = 0.25 [kg/m3] | mass density, x1 = 0.498 [kg/m3] | mass density, x1 = 0.751 [kg/m3] | mass density, x1 = 1 [kg/m3] | viscosity, x1 = 0.25 [mPa·s] | viscosity, x1 = 0.498 [mPa·s] | viscosity, x1 = 0.751 [mPa·s] | viscosity, x1 = 1 [mPa·s]
283.15 K | 1291.2 | 1355.8 | 1409.1 | 1451.8 | 200.83 | 158.06 | 127.96 | 106.77
288.15 K | 1287.1 | 1351.4 | 1404.4 | 1446.9 | 149.79 | 119.67 | 97.87 | 82.16
293.15 K | 1283.1 | 1347.1 | 1399.8 | 1442.1 | 114.12 | 92.47 | 76.33 | 64.53
298.15 K | 1279.1 | 1342.8 | 1395.1 | 1437.2 | 88.56 | 72.77 | 60.64 | 51.6
303.15 K | 1275.1 | 1338.5 | 1390.5 | 1432.4 | 69.91 | 58.24 | 48.97 | 41.93
308.15 K | 1271.2 | 1334.2 | 1386 | 1427.6 | 56.12 | 47.31 | 40.14 | 34.59
313.15 K | 1267.3 | 1329.9 | 1381.5 | 1422.8 | 45.7 | 38.96 | 33.35 | 28.91
318.15 K | 1263.4 | 1325.7 | 1376.9 | 1418.1 | 37.72 | 32.48 | 28.05 | 24.46
323.15 K | 1259.5 | 1321.4 | 1372.4 | 1413.4 | 31.52 | 27.36 | 23.85 | 20.91
328.15 K | 1255.6 | 1317.2 | 1368 | 1408.7 | 26.63 | 23.29 | 20.48 | 18.05
333.15 K | 1251.8 | 1313.1 | 1363.5 | 1404 | 22.71 | 20.02 | 17.75 | 15.72
338.15 K | 1248 | 1308.9 | 1359.1 | 1399.3 | 19.58 | 17.36 | 15.51 | 13.8
343.15 K | 1244.2 | 1304.8 | 1354.8 | 1394.7 | 17.02 | 15.19 | 13.66 | 12.2
348.15 K | 1240.4 | 1300.7 | 1350.4 | 1390.1 | 14.91 | 13.38 | 12.11 | 10.86
353.15 K | 1236.7 | 1296.6 | 1346 | 1385.5 | 13.15 | 11.84 | 10.81 | 9.72
358.15 K | 1233 | 1292.6 | 1341.7 | 1381 | 11.66 | 10.55 | 9.688 | 8.754
363.15 K | 1229.3 | 1288.6 | 1337.5 | 1376.4 | 10.42 | 9.467 | 8.733 | 7.926

CCCCn1cc[n+](C)c1.N#C[S-] [1-butyl-3-methylimidazolium thiocyanate] + CCCC[n+]1ccn(C)c1.O=S(=O)([N-]S(=O)(=O)C(F)(F)F)C(F)(F)F
Conditions | mass density, x2 = 0 [kg/m3] | mass density, x2 = 0.25 [kg/m3] | mass density, x2 = 0.5 [kg/m3] | mass density, x2 = 0.748 [kg/m3] | viscosity, x2 = 0 [mPa·s] | viscosity, x2 = 0.25 [mPa·s] | viscosity, x2 = 0.5 [mPa·s] | viscosity, x2 = 0.748 [mPa·s]
283.15 K | 1079.2 | 1206.2 | 1305.3 | 1385.3 | 139.54 | 133.49 | 124.13 | 115.12
288.15 K | 1076.2 | 1202.6 | 1301.2 | 1380.7 | 104.51 | 101.08 | 94.68 | 88.29
293.15 K | 1073.2 | 1199 | 1297.1 | 1376.2 | 82.91 | 80.92 | 76.17 | 71.22
298.15 K | 1070.2 | 1195.4 | 1293.1 | 1371.7 | 62.63 | 61.69 | 58.5 | 55.06
303.15 K | 1067.2 | 1191.8 | 1289 | 1367.3 | 49.94 | 49.55 | 47.23 | 44.62
308.15 K | 1064.2 | 1188.3 | 1285 | 1362.8 | 40.48 | 40.42 | 38.7 | 36.7
313.15 K | 1061.3 | 1184.7 | 1281 | 1358.4 | 34.08 | 34.22 | 32.85 | 31.22
318.15 K | 1058.4 | 1181.2 | 1277.1 | 1354 | 27.8 | 28.05 | 27.03 | 25.81
323.15 K | 1055.5 | 1177.7 | 1273.1 | 1349.7 | 23.49 | 23.79 | 22.97 | 22.01
328.15 K | 1052.6 | 1174.3 | 1269.2 | 1345.3 | 20.06 | 20.39 | 19.74 | 18.96
333.15 K | 1049.8 | 1170.8 | 1265.3 | 1341 | 17.58 | 17.91 | 17.36 | 16.7
338.15 K | 1047 | 1167.4 | 1261.5 | 1336.7 | 15.08 | 15.38 | 14.94 | 14.44
343.15 K | 1044.1 | 1164 | 1257.6 | 1332.4 | 13.24 | 13.54 | 13.16 | 12.74
348.15 K | 1041.4 | 1160.6 | 1253.8 | 1328.1 | 11.71 | 12 | 11.67 | 11.33
353.15 K | 1038.6 | 1157.3 | 1250 | 1323.9 | 10.67 | 10.92 | 10.65 | 10.36
358.15 K | 1035.8 | 1154 | 1246.2 | 1319.7 | 9.355 | 9.577 | 9.351 | 9.114
363.15 K | 1033.1 | 1150.7 | 1242.4 | 1315.5 | 8.436 | 8.621 | 8.44 | 8.242

CCCCn1cc[n+](C)c1.COP(=O)([O-])OC [1-butyl-3-methyl-1H-imidazolium dimethylphosphate] + CCCC[n+]1ccn(C)c1.O=S(=O)([N-]S(=O)(=O)C(F)(F)F)C(F)(F)F
Conditions | mass density, x2 = 0 [kg/m3] | mass density, x2 = 0.25 [kg/m3] | mass density, x2 = 0.501 [kg/m3] | mass density, x2 = 0.747 [kg/m3] | viscosity, x2 = 0 [mPa·s] | viscosity, x2 = 0.25 [mPa·s] | viscosity, x2 = 0.501 [mPa·s] | viscosity, x2 = 0.747 [mPa·s]
283.15 K | 1168.4 | 1251 | 1325.1 | 1390.6 | 2315.6 | 1433.7 | 630.61 | 251.51
288.15 K | 1164.9 | 1247 | 1320.6 | 1386 | 1454.6 | 930.25 | 433.3 | 183.6
293.15 K | 1161.4 | 1243.1 | 1316.2 | 1381.5 | 943.97 | 618.01 | 301.49 | 137.3
298.15 K | 1157.9 | 1239.1 | 1312 | 1377 | 641.71 | 432.55 | 222.26 | 104.86
303.15 K | 1154.3 | 1235.2 | 1307.8 | 1372.5 | 446.92 | 307.85 | 165.15 | 81.71
308.15 K | 1150.9 | 1231.4 | 1303.7 | 1368.1 | 319.33 | 224.53 | 125.35 | 64.81
313.15 K | 1147.6 | 1227.7 | 1299.7 | 1363.6 | 232.1 | 166.25 | 96.27 | 52.46
318.15 K | 1144.3 | 1224.1 | 1295.6 | 1359.2 | 174.7 | 127.53 | 76.39 | 42.72
323.15 K | 1141 | 1220.4 | 1291.6 | 1354.8 | 133.37 | 98.92 | 61.14 | 35.4
328.15 K | 1137.8 | 1216.8 | 1287.6 | 1350.4 | 103.62 | 78.04 | 49.65 | 29.69
333.15 K | 1134.6 | 1213.2 | 1283.5 | 1346 | 81.97 | 62.7 | 41.07 | 25.42
338.15 K | 1131.4 | 1209.7 | 1279.5 | 1341.7 | 65.62 | 50.83 | 34.05 | 21.56
343.15 K | 1128.3 | 1206.1 | 1275.6 | 1337.4 | 53.39 | 41.87 | 28.69 | 18.63
348.15 K | 1125.1 | 1202.5 | 1271.6 | 1333.1 | 44.01 | 34.9 | 24.42 | 16.23
353.15 K | 1122 | 1199 | 1267.7 | 1328.8 | 37.08 | 29.8 | 21.36 | 14.57
358.15 K | 1118.9 | 1195.5 | 1263.7 | 1324.6 | 30.94 | 25.03 | 18.18 | 12.61
363.15 K | 1115.7 | 1192 | 1259.9 | 1320.4 | 26.33 | 21.5 | 15.88 | 11.22
